The IC50 is the concentration needed to halve the response being measured.

The structures appear in SMILES notation.

The assay deals with Protein c-Fos/Transcription factor Jun (Homo sapiens, UniProt P05412+P01100). The assay can be described thus: Inhibition of AP-1 (activator protein-1) mediated transcriptional activation in Jurkat T-cells.
Chain of Protein c-Fos/Transcription factor Jun (P05412 whole entry): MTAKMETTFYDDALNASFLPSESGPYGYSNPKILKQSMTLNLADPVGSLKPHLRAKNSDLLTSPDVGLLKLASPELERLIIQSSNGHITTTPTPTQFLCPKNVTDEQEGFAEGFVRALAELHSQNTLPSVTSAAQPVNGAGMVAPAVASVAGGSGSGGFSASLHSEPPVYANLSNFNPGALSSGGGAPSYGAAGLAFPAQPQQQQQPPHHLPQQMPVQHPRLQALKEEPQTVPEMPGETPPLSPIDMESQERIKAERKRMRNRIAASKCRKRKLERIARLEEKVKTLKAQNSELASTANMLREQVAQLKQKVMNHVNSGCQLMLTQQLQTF
Chain of Protein c-Fos/Transcription factor Jun (P01100 whole entry): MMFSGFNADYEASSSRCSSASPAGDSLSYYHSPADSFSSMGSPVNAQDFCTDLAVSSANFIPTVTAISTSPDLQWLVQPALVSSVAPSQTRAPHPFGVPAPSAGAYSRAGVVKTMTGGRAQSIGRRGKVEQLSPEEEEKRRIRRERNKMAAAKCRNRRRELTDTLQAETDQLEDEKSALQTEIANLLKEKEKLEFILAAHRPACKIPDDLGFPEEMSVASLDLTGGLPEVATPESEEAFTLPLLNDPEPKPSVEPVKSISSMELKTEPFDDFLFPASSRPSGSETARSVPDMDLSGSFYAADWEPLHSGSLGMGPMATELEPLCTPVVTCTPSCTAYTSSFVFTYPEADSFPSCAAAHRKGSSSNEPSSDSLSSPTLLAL

As to `CCOC(=O)c1cnc(-c2cc(Cl)cc(Cl)c2)nc1NN1C(=O)C=C(C)C1=O` [ethyl 2-(3,5-dichlorophenyl)-4-(3-methyl-2,5-dioxo-2H-pyrrol-1(5H)-ylamino)pyrimidine-5-carboxylate], half-maximal inhibition (IC50) was put at 300 nM.
The same measure for `CCOC(=O)c1cnc(C(F)(F)F)nc1NN1C(=O)C=C(c2ccccc2)C1=O` [4-(2,5-Dioxo-3-phenyl-2,5-dihydro-pyrrol-1-ylamino)-2-trifluoromethyl-pyrimidine-5-carboxylic acid ethyl ester]: 20000 nM.
The same measure for `CCOC(=O)c1cnc(C(=O)c2ccco2)nc1NN1C(=O)C=C(C)C1=O` [ethyl 2-(furan-2-carbonyl)-4-(3-methyl-2,5-dioxo-2H-pyrrol-1(5H)-ylamino)pyrimidine-5-carboxylate]: 700 nM.
In the case of `CCOC(=O)c1cnc(-c2cnc3ccccc3c2)nc1NN1C(=O)C=C(C)C1=O` [ethyl 4-(3-methyl-2,5-dioxo-2H-pyrrol-1(5H)-ylamino)-2-(quinolin-3-yl)pyrimidine-5-carboxylate], it took 6000 nM to reach half-maximal inhibition (IC50).
Take `CCOC(=O)c1cnc(Oc2ccccc2)nc1NN1C(=O)C=C(C)C1=O` [ethyl 4-(3-methyl-2,5-dioxo-2H-pyrrol-1(5H)-ylamino)-2-phenoxypyrimidine-5-carboxylate]: the midpoint of inhibition, the IC50, lay at 15000 nM.
Take `CCOC(=O)c1cnc(-c2ccc(C)s2)nc1NN1C(=O)C=C(C)C1=O` [4-(3-Methyl-2,5-dioxo-2,5-dihydro-pyrrol-1-ylamino)-2-(5-methyl-thiophen-2-yl)-pyrimidine-5-carboxylic acid ethyl ester]: inhibition was half-maximal at 200 nM (IC50).
For `CCOC(=O)c1cnc(-c2ccc(F)cc2)nc1NN1C(=O)C=C(C)C1=O` [ethyl 2-(4-fluorophenyl)-4-(3-methyl-2,5-dioxo-2H-pyrrol-1(5H)-ylamino)pyrimidine-5-carboxylate], half-maximal inhibition (IC50) required 700 nM.

These data come from BindingDB's records for doi:10.1016/s0960-894x(00)00312-7 (Signal Pharmaceuticals, 2000).
